Experimental data from US20140079836A1, “METHODS AND COMPOSITIONS FOR ALTERING HEALTH, WELLBEING, AND LIFESPAN” (LifeSpan Extension, LLC, priority 2008, published 2014).
“And” between values parts separate entries of the source, which are not always exact repeats. Equal values may be shown once.

System: entire human genome (gene expression profile)
Experiment: Agilent whole human genome array, skin fibroblasts AG07999, antioxidant with or without UV
Format: cell-based
Method: Cell cultures: A human skin fibroblast cell culture was obtained through the Coriell Cell Repository from the National Institute on Aging Cell Repository. […] Culture media: Cells were grown in Minimal Essential Medium supplemented with 10% fetal bovine serum, 2 mM L-glutamine, 2 mM Glutamax I. […] All cultures were incubated at 37° C. with 5% CO2 in a humidified chamber. […] On Day 5 after 24 hours of exposure to test conditions, the cells were isolated and the RNA isolated using the RT^2q PCR-grade RNA isolation kit (Superarray Bioscience Corporation). […] Analysis of Agilent Whole Human Genome Arrays: RNA taken from both samples was sent to Cogenics, Inc. Morrisville, N.C. Cogenics, Inc. is a leading, state-of-the-art, microarray service provider that facilitates and accelerates transcriptome profiling and gene discovery processes for industrial and academic researchers. Cogenics' procedure for processing samples is as follows: RNA samples are received and analyzed by Cogenics, Inc. using rigorous standardized procedures that are designed to ensure quality and chain of custody. Each sample undergoes a thorough quality analysis using an Agilent Bioanalyzer microfluidics device, and is precisely quantified using a Nanodrop-1000 spectro-photometer. When the Agilent Oligonucleotide Microarray Platform is utilized, samples are fluorescently labeled using the Agilent Low-Input Linear Amplification Kit. Upon completion of this process, the labeled cRNA products are assessed using the same processes described above. These labeled samples are then fragmented and hybridized to oligonucleotide microarrays. The microarrays are washed and then scanned using an Agilent DNA Microarray Scanner with Sure Scan technology. Data is extracted from the images produced by the scanner using Agilent's Feature Extraction software. At this point, the scanned image is visually inspected for defects, and the extracted data is statistically analyzed to ensure quality of the assay. Extracted data and images can be loaded into Rosetta Resolver Gene Expression Data Analysis System for in-depth analysis, both from a quality standpoint, as well as to develop biological understanding. […] A table was generated and provided as a tab-delimited text file. This file will contain the log ratio, fold-change, log ratio p-value, etc. for every transcript measured by the microarray. Using Rosetta Resolver, a single ratio comparison was compiled based on the results of the two fluorophore reversal hybridization performed in the context of this project. The ratios were calculated such that the Tx sample was in the numerator and the UnTx sample was in the denominator. A table was generated, saved as tab-delimited text files, and is provided on the DVD that accompanied this report in the “Objective—1” subdirectory or the “Data_Analysis” directory. These files contain the log ratio, fold-change, log ratio p-value, etc. for every transcript present on the microarray. […] A table for will be generated and provided as a tab-delimited text file. The file will contain the log ratio, fold-change, log ratio p-value, etc. for only the differentially expressed transcripts within the context of the comparison. […] These criteria were applied to the comparison made in Objective 1. A table was generated, saved as tab-delimited text files, and is provided on the DVD that accompanied this report in the “Objective—1” subdirectory or the “Data_Analysis” directory. […] Cell cultures: A human skin fibroblast cell culture (or cultures) will be obtained through the Coriell Cell Repository from the National Institute on Aging Cell Repository. […] Culture media: Cells will be grown in Minimal Essential Medium supplemented with 10% fetal bovine serum, 2 mM L-glutamine, 2 mM Glutamax I.

COC1=C(OC)C(=O)C(CCCCCCCCCCO)=C(C)C1=O [Idebenone, 6-(10-hydroxydecyl)-2,3-dimethoxy-5-methyl-1,4-benzoquin-one]
fold change of gene expression (sequence name in c0), Idebenone + UVB: n.s. | ABL1 Expression (Alone): 1.0 | ACE Expression (Alone): −1.0 | ACTB Expression (Alone): 1.1 and 1.0 | AK3 Expression (Alone): 1.0 | ALDOA Expression (Alone): 1.0 | ANKRD17 Expression (Alone): −1.0 | APEX1 Expression (Alone): 1.2 | APEX2 Expression (Alone): −1.1 | APOE Expression (Alone): 1.0 | ATF2 Expression (Alone): 1.1 | ATIC Expression (Alone): 1.0 | ATM Expression (Alone): 1.2 | ATR Expression (Alone): 1.2 | ATRX Expression (Alone): 1.0 | ATXN3 Expression (Alone): −1.1 | B2M Expression (Alone): −1.0 | BARD1 Expression (Alone): 1.4 | BAX Expression (Alone): 1.3 | BCL2 Expression (Alone): 1.0 | BLM Expression (Alone): 1.0 | BPNT1 Expression (Alone): −1.2 | BRCA1 Expression (Alone): −1.0 | BRCA2 Expression (Alone): 1.1 | BRIP1 Expression (Alone): 1.0 | BTG2 Expression (Alone): 1.0 | CASP2 Expression (Alone): 1.0 | CASP9 Expression (Alone): −1.0 | CCNH Expression (Alone): −1.1 | CDA Expression (Alone): −1.5 | CDK7 Expression (Alone): 1.0 | CDKN1A Expression (Alone): 1.2 | CDKN2A Expression (Alone): 1.0 | CETN2 Expression (Alone): 1.1 | CHEK1 Expression (Alone): −1.5 | CHEK2 Expression (Alone): 1.1 | CHUK Expression (Alone): 1.0 | CIB1 Expression (Alone): 1.0 | CIDEA Expression (Alone): 1.3 | CIDEB Expression (Alone): −1.2 | CLK1 Expression (Alone): 1.0 | CREBBP Expression (Alone): −1.0 | CRY1 Expression (Alone): 1.0 | CRY2 Expression (Alone): −1.1 | CSF2 Expression (Alone): 2.4 | CTPS Expression (Alone): 1.0 | CYP19A1 Expression (Alone): 1.4 | DCLRE1C Expression (Alone): 1.0 | DDB1 Expression (Alone): 1.9 | DDB2 Expression (Alone): 1.0 | DDC Expression (Alone): 1.0 | DDIT3 Expression (Alone): 1.1 | DHFR Expression (Alone): 1.0 | DKC1 Expression (Alone): 1.0 | DMC1 Expression (Alone): 1.1 | DPYS Expression (Alone): 1.1 | DUT Expression (Alone): 1.5 | E2F1 Expression (Alone): −1.5 | E2F2 Expression (Alone): −1.1 | E2F3 Expression (Alone): −1.5 | ENTPD4 Expression (Alone): 1.1 | ERCC1 Expression (Alone): 1.2 | ERCC2 Expression (Alone): 1.0 | ERCC3 Expression (Alone): −1.0 | ERCC4 Expression (Alone): −1.1 | ERCC5 Expression (Alone): 1.0 | ERCC6 Expression (Alone): 1.4 | ERCC8 Expression (Alone): −1.1 | ERH Expression (Alone): 1.0 | EXO1 Expression (Alone): 1.1 | FANCA Expression (Alone): 1.0 | FANCC Expression (Alone): −1.0 | FANCF Expression (Alone): −1.1 | FANCG Expression (Alone): 1.1 | FEN1 Expression (Alone): −1.0 | FPGS Expression (Alone): 1.2 | GADD45A Expression (Alone): −1.1 | GADD45G Expression (Alone): 1.0 | GAPDH Expression (Alone): −1.1 | GDA Expression (Alone): 1.0 | GH1 Expression (Alone): 1.0 | GML Expression (Alone): −1.3 | GMPR Expression (Alone): 1.0 | GTF2H1 Expression (Alone): 1.1 | GTF2H2 Expression (Alone): −1.2 | GTF2H3 Expression (Alone): 1.0 | GTF2H4 Expression (Alone): −1.4 | GTSE1 Expression (Alone): −1.1 | HK1 Expression (Alone): −1.1 | HLA-DRA Expression (Alone): 1.0 | HPRT1 Expression (Alone): 1.2 and 1.1 | HSP90AB1 Expression (Alone): 1.1 | HSPA1A Expression (Alone): 1.4 | HSPA1L Expression (Alone): 1.0 | HTRA1 Expression (Alone): 1.1 | HUS1 Expression (Alone): 1.0 | IFI44 expression (Alone): −1.6 | IGF1 Expression (Alone): 1.0 | IGF2 Expression (Alone): 1.0 | IGHMBP2 Expression (Alone): 1.1 | IHPK3 Expression (Alone): 1.1 | IL1A Expression (Alone): −1.0 | IL6 Expression (Alone): −1.0 | IL10 Expression (Alone): 1.1 | INPPL1 Expression (Alone): −1.2 | JUN Expression (Alone): 1.0 | KRAS Expression (Alone): −1.2 | LIG1 Expression (Alone): 1.0 | LIG3 Expression (Alone): 1.0 | LIG4 Expression (Alone): 1.0 | LTA Expression (Alone): −1.1 | MAP2K6 Expression (Alone): 1.0 | MAPK8 Expression (Alone): −1.3 | MAPK9 Expression (Alone): −1.0 | MAPK12 Expression (Alone): −1.0 | MAPK14 Expression (Alone): 1.0 | MAPKAPK2 Expression (Alone): −1.4 | MAX Expression (Alone): −1.0 | MBD4 Expression (Alone): 1.0 | MCM2 Expression (Alone): 1.4 | MDH1 Expression (Alone): 1.0 | MGMT Expression (Alone): −1.3 | MKI67 Expression (Alone): 1.4 | MLH1 Expression (Alone): 1.0 | MLH3 Expression (Alone): 1.0 | MMP1 Expression (Alone): −1.4 | MMP2 Expression (Alone): −1.1 | MMP3 Expression (Alone): 2.3 | MMP7 Expression (Alone): −1.6 | MMP10 Expression (Alone): 1.0 | MMP11 Expression (Alone): 1.1 | MMP12 Expression (Alone): 1.7 | MMP13 Expression (Alone): 1.0 | MMP14 Expression (Alone): −1.1 | MMP15 Expression (Alone): −1.0 | MNAT1 Expression (Alone): 1.0 | MPG Expression (Alone): 1.0 | MRE11A Expression (Alone): 1.2 | MSH2 Expression (Alone): 1.0 | MSH3 Expression (Alone): 1.1 | MSH4 Expression (Alone): 1.0 | MSH6 Expression (Alone): 1.0 | MSRA Expression (Alone): −1.0 | MT2A Expression (Alone): −1.3 | MTAP Expression (Alone): 1.1 | MUTYH Expression (Alone): −1.0 | MVK Expression (Alone): 1.6 | MYBL2 Expression (Alone): 1.4 | MYCBP Expression (Alone): −1.0 | N4BP2 Expression (Alone): 1.1 | NADSYN1 expression (Alone): 1.2 | NBN Expression (Alone): −1.2 | NCK1 Expression (Alone): 1.0 | NEIL1 Expression (Alone): 1.5 | NEIL2 Expression (Alone): 1.2 | NEIL3 Expression (Alone): −1.0 | NF1 Expression (Alone): −1.1 | NFKB1 expression (Alone): −1.5 | NFKBIA Expression (Alone): 1.0 | NGFR Expression (Alone): 1.0 | NOS2A Expression (Alone): 1.0 | NP Expression (Alone): −1.2 | NR1D1 Expression (Alone): −1.6 | NRG1 Expression (Alone): 1.1 | NTHL1 Expression (Alone): 1.1 | NUDT1 Expression (Alone): 1.3 | NUDT2 Expression (Alone): −1.0 | OAS1 Expression (Alone): 1.3 | OAS2 Expression (Alone): 1.2 | OAS3 Expression (Alone): 1.0 | OGG1 Expression (Alone): −1.3 | PAK1 Expression (Alone): −1.0 | PAPSS1 Expression (Alone): −1.0 | PAPSS2 Expression (Alone): −1.0 | PARP1 Expression (Alone): 1.3 and 1.2 | PARP2 Expression (Alone): 1.3 | PCNA Expression (Alone): −1.0 | PDZK1IP1 Expression (Alone): 1.0 | PITRM1 Expression (Alone): −1.1 | PKM2 Expression (Alone): −1.1 | PLAT Expression (Alone): −1.1 | PLAU Expression (Alone): −1.6 | PLAUR Expression (Alone): −1.1 | PLK1 Expression (Alone): 1.3 | POLA2 Expression (Alone): 1.0 | PPARG Expression (Alone): −1.0 | PPIE Expression (Alone): 1.1 | PRDX6 Expression (Alone): −1.5 | PSMA2 Expression (Alone): 1.1 | PSMA3 Expression (Alone): 1.1 | PSMC6 Expression (Alone): 1.0 | PSMD1 Expression (Alone): −1.0 | PSMD11 Expression (Alone): 1.1 | PSMD12 Expression (Alone): 1.0 | PTGS1 Expression (Alone): 1.2 | RAF1 Expression (Alone): −1.0 | RB1 Expression (Alone): −1.5 | RET Expression (Alone): −1.0 | RORA Expression (Alone): −1.2 | RPL3 Expression (Alone): 1.0 | RPL13A Expression (Alone): −1.0 | RPS9 Expression (Alone): 1.2 | RPS10 Expression (Alone): 1.0 | RRAS Expression (Alone): −1.1 | RRM1 Expression (Alone): −1.0 | S100A7 Expression (Alone): 2.7 | S100A8 Expression (Alone): 1.0 | S100A10 Expression (Alone): −1.7 | S100A11 Expression (Alone): −1.1 | SDS Expression (Alone): −2.0 | SERPINB2 Expression (Alone): −2.9 | SERPINE1 Expression (Alone): −1.4 | SHC1 Expression (Alone): 1.2 and 1.0 | SIRT1 Expression (Alone): −1.2 | SLK Expression (Alone): −1.0 | SMAD1 Expression (Alone): 1.2 | SNCG Expression (Alone): 1.4 | SOD1 Expression (Alone): −1.0 | SOD2 Expression (Alone): 1.1 and 1.0 | SPARC Expression (Alone): −1.2 | SPP1 Expression (Alone): −2.7 | SPRR1B Expression (Alone): 1.0 | SRI Expression (Alone): −1.0 | STAT5A Expression (Alone): −1.0
